{"source": "patent US6087355A", "about": "“Cephalosporin antibiotics” (Microcide Pharmaceuticals, Inc., priority 1996, dated 2000)", "test_in_all_cases": "In vitro MIC, agar dilution", "assay_type_in_all_cases": "cell-based", "key": {"[1]": {"tested_on": "E. faecium ATCC 35667", "details": "Enterococcus faecium, ATCC35667, read-out: minimum inhibitory concentration (MIC)", "outline": "(§1)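 Strains were spotted at roughly 10^4 cfu onto drug-containing Mueller-Hinton agar. MIC was read as the lowest inhibitory concentration after overnight incubation at 35-36 °C.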"}, "[2]": {"tested_on": "S. aureus PC1(Meth^S)(lac^+)", "details": "Staphylococcus aureus, read-out: minimum inhibitory concentration (MIC)", "outline": "as §1"}, "[3]": {"tested_on": "S. aureus ATCC 29213", "details": "Staphylococcus aureus, ATCC29213, read-out: minimum inhibitory concentration (MIC)", "outline": "as §1"}, "[4]": {"tested_on": "S. aureus ATCC 33593(Meth^R)", "details": "Staphylococcus aureus, ATCC33593, read-out: minimum inhibitory concentration (MIC)", "outline": "as §1"}, "[5]": {"tested_on": "E. faecium VanA(Van^R)", "details": "Enterococcus faecium, read-out: minimum inhibitory concentration (MIC)", "outline": "as §1"}, "[6]": {"tested_on": "E. faecalis VanB(Van^R)", "details": "Enterococcus faecalis, read-out: minimum inhibitory concentration (MIC)", "outline": "as §1"}, "[7]": {"tested_on": "P. aeruginosa ATCC 27853", "details": "Pseudomonas aeruginosa, ATCC27853, read-out: minimum inhibitory concentration (MIC)", "outline": "as §1"}, "[8]": {"tested_on": "S. aureus Spain #356(Meth^R)", "details": "Staphylococcus aureus, read-out: minimum inhibitory concentration (MIC)", "outline": "as §1"}}, "data": [{"compound": "C[C@@H](O)[C@H]1C(=O)N2C(C(=O)O)=C(SCCN=CN)C[C@H]12", "note": "[Imipenem, imipenem, reference compound]", "values": [{"measurement": "MIC", "setting": "[1]", "value": 4, "unit": "mg/L"}, {"measurement": "MIC", "setting": "[2]", "value": "≤ 0.25", "unit": "mg/L"}, {"measurement": "MIC", "setting": "[3]", "value": "≤ 0.25", "unit": "mg/L"}, {"measurement": "MIC", "setting": "[4]", "value": 32, "unit": "mg/L"}, {"measurement": "MIC", "setting": "[5]", "value": 4, "unit": "mg/L"}, {"measurement": "MIC", "setting": "[6]", "value": 0.5, "unit": "mg/L"}, {"measurement": "MIC", "setting": "[7]", "value": 1, "unit": "mg/L"}, {"measurement": "MIC", "setting": "[8]", "value": 32, "unit": "mg/L"}]}]}
